Measured values as given in patent publication US5789431A, “Naphthoquinone antitumor compound and method” (The University of North Carolina at Chapel Hill, priority 1996, dated 1998).

How the values were obtained:
MCF7/ADR-RES = experiment: in vitro breast cancer cell growth inhibition (NCI screen)
MOLT-4 = experiment: in vitro leukemia cell growth inhibition (NCI screen)
BT-549 = experiment: in vitro breast cancer cell growth inhibition (NCI screen)
COLO-205 = experiment: in vitro colon cancer cell growth inhibition (NCI screen)
MDA-N = experiment: in vitro breast cancer cell growth inhibition (NCI screen)
M14 = experiment: in vitro melanoma cell growth inhibition (NCI screen)
CCRF-CEM = experiment: in vitro leukemia cell growth inhibition (NCI screen)
SF-539 = experiment: in vitro CNS cancer cell growth inhibition (NCI screen)
MCF-7 = experiment: in vitro breast cancer cell growth inhibition (NCI screen)
UACC-62 = experiment: in vitro melanoma cell growth inhibition (NCI screen)
HCC-2998 = experiment: in vitro colon cancer cell growth inhibition (NCI screen)
MDA-MB-435 = experiment: in vitro breast cancer cell growth inhibition (NCI screen)
OVCAR-3 = experiment: in vitro ovarian cancer cell growth inhibition (NCI screen)
UACC-257 = experiment: in vitro melanoma cell growth inhibition (NCI screen)
MALME-3M = experiment: as above
HL-60(TB) = experiment: in vitro leukemia cell growth inhibition (NCI screen)
SR = experiment: as above
LOX1MVI = experiment: in vitro melanoma cell growth inhibition (NCI screen)
HOP-92 = experiment: in vitro non-small cell lung cancer cell growth inhibition (NCI screen)
SK-MEL-5 = experiment: in vitro melanoma cell growth inhibition (NCI screen)
SK-MEL-2 = experiment: as above
MDA-MB-231/ATCC = experiment: in vitro breast cancer cell growth inhibition (NCI screen)
NCI-H460 = experiment: in vitro non-small cell lung cancer cell growth inhibition (NCI screen)
RXF-393 = experiment: in vitro renal cancer cell growth inhibition (NCI screen)
TK-10 = experiment: as above
NCI-H23 = experiment: in vitro non-small cell lung cancer cell growth inhibition (NCI screen)
UO-31 = experiment: in vitro renal cancer cell growth inhibition (NCI screen)
HCT-116 = experiment: in vitro colon cancer cell growth inhibition (NCI screen)
SW 620 = experiment: as above
NCI-H522 = experiment: in vitro non-small cell lung cancer cell growth inhibition (NCI screen)

SMILES | cytotoxicity log GI50 (COLO-205) | cytotoxicity log GI50 (MDA-N) | cytotoxicity log GI50 (M14) | cytotoxicity log GI50 (SF-539) | cytotoxicity log GI50 (UACC-62) | cytotoxicity log GI50 (MDA-MB-435) | cytotoxicity log GI50 (OVCAR-3) | cytotoxicity log GI50 (UACC-257) | cytotoxicity log GI50 (LOX1MVI) | cytotoxicity log GI50 (HOP-92) | cytotoxicity log GI50 (SK-MEL-5) | cytotoxicity log GI50 (SK-MEL-2) | cytotoxicity log GI50 (MDA-MB-231/ATCC) | cytotoxicity log GI50 (NCI-H460) | also measured
COC(=O)CCCC(=O)NC1=C(NCc2ccccc2)C(=O)c2ccccc2C1=O [Compound 51] | -4.62 M | -4.38 M | -4.53 M | -4.44 M | -4.53 M | -4.37 M | -4.64 M | -4.53 M |  |  |  |  |  |  | cytotoxicity log GI50 (MCF7/ADR-RES): -4.56 M; cytotoxicity log GI50 (MOLT-4): -4.47 M; cytotoxicity log GI50 (BT-549): -4.54 M; cytotoxicity log GI50 (CCRF-CEM): -4.44 M; cytotoxicity log GI50 (MCF-7): -4.52 M; cytotoxicity log GI50 (HCC-2998): -4.49 M; cytotoxicity log GI50 (MALME-3M): -4.81 M; cytotoxicity log GI50 (HL-60(TB)): -4.54 M
COC(=O)CCC(=O)NC1=C(Nc2ccc(OC)cc2)C(=O)c2ccccc2C1=O [Compound 56] |  | -5.74 M | -5.22 M |  | -5.67 M | -5.69 M | -5.48 M | -5.37 M | -5.41 M | -5.66 M | -5.75 M | -5.31 M | -4.63 M | -5.18 M | cytotoxicity log GI50 (SR): -5.16 M
O=C(O)CCc1nc2c(n1Cc1ccccc1)C(=O)c1ccccc1C2=O [Compound 61] | -4.47 M | -4.67 M | -4.67 M | -4.55 M | -4.42 M | -4.72 M | -4.55 M | -4.47 M | -4.57 M | -5.26 M | -4.67 M | -4.59 M | -4.47 M | -4.42 M | cytotoxicity log GI50 (RXF-393): -4.60 M; cytotoxicity log GI50 (TK-10): -4.47 M; cytotoxicity log GI50 (NCI-H23): -4.52 M; cytotoxicity log GI50 (UO-31): -4.51 M; cytotoxicity log GI50 (HCT-116): -4.44 M; cytotoxicity log GI50 (SW 620): -4.50 M; cytotoxicity log GI50 (NCI-H522): -4.62 M
